# According to US20140194477A1, “KINASE PROTEIN BINDING INHIBITORS” (Roswell Park Cancer Institute, priority 2011, published 2014):
# Legend:
# FAK = FAK (Homo sapiens, UniProt Q05397); assay: FAK Y397 phosphorylation; assay type: biochemical; settings: in vitro
# cancer cell = assay: Cancer cell viability in vitro; assay type: cell-based
# CD-1 mice = assay: 28-day multiple-dose toxicologic study, IP, CD-1 mice; assay type: in vivo, mouse
# Procedure: A 28-day, multiple-dose toxicologic study of the chemical 1,2,4,5-Benzenetetramine tetrahydrochloride was performed in CD-1 mice.
# • 1,2,4,5-benzenetetramine tetrahydrochloride. The test article was prepared in PBS (physiologic buffered saline). The test article was prepared by the sponsor and delivered to the study director prior to the study. The test article was stored in the freezer (0° C.), protected from light.
# • PBS (physiologic buffered saline), • Test System: • The CD-1 [Hsd:ICR(CD-l)] albino mouse was used. The CD-1 mouse is conventionally used in 28 day toxicity tests to provide information on which human hazards can be judged, and is one of the choices of species preferred by regulatory agencies. Mice were obtained from Harlan (Frederick, MD). • Mice were acclimated for 2 days prior to testing. 12 male and 12 female mice, nulliparous and non-pregnant, were used. Normal weight gain, appearance and behavior were factors used to select healthy mice for testing. Only naive animals were used. Mice were 7 weeks old (males) and 9 weeks old (females), weighed 21-26 grams (males) and 17-23 grams (females), and were in good health at the start of the study. Mice were 11 weeks old (males) and 13 weeks old (females), weighed 20-32 grams (males) and 19-26 grams (females) at the conclusion of the study. • Mice were randomly assigned to 4 experimental groups (high-dose, medium-dose, low-dose, and controls) consisting of 3 males and 3 females. Mice were identified via cage cards, tail markings, and ear punch. Mouse identification is summarized in Table 1. • Mice were fed autoclaved Harlan-Teklad sterilizable 7012 mouse/rat diet ad libitum. The feed is routinely analyzed by the manufacturer for nutritional components and environmental contaminants. Tap water acidified to a pH of 2.5-3.5 was provided in autoclaved water bottles ad libitum. Municipal water supply is analyzed by the Bureau Veritas Consumer Product Services of Buffalo, N.Y. on an annual basis. There are no known contaminants in the feed or water provided to the test animals that would be expected to interfere with this study. • Mice were group-housed, 3 to a cage, in autoclaved polycarbonate/polysulfone microisolator cages with autoclaved contact bedding (bed ′o cobs, Anderson's Industrial Products Group). • Environmental conditions in the animal housing room were maintained at an ambient temperature of 70±3°, relative humidity of 30-70%, and a 12:12 light-dark cycle. Animal housing rooms were ventilated with 100% fresh, HEPA filtered air with 10-15 air changes per hour.
# • A 28-day multiple-dose toxicology study was performed.
# The test article (1,2,4,5-benzenetetramine tetrahydrochloride) was prepared in PBS (the control article) and administered intraperiotoneally (IP) as 20 doses once daily on days 0-4, 7-11, 14-18, and 21-25 in the morning. The compound was diluted so as not to exceed a volume of 0.1 mL.
# The test article (1,2,4,5-benzenetetramine tetrahydrochloride) was stored in the freezer (0° C.) and thawed to room temperature prior to injection. Mice were randomly allocated into 4 groups (control, low-dose, medium-dose, and high-dose) consisting of 3 males and 3 females, Dosages were calculated on a “per mouse” basis, not on a mg/kg basis. Mice in the low-dose group received the equivalent of a 15 mg/kg dose for a 20 g mouse (0.3 mg). Mice in the medium-dose group received the equivalent of a 30 mg/kg dose for a 20 g mouse (0.6 mg). Mice in the high-dose group received the equivalent of a 45 mg/kg dose for a 20 g mouse (0.9 mg). Mice in the control group received 0.1 mL of PBS (phosphate-buffered saline). Groups received the following doses, as outlined in table 1: […]
# tumor = assay: Tumor growth in vivo
# [1] = IP, 28-day study, high-dose group
# Sequence of FAK (Q05397 whole entry): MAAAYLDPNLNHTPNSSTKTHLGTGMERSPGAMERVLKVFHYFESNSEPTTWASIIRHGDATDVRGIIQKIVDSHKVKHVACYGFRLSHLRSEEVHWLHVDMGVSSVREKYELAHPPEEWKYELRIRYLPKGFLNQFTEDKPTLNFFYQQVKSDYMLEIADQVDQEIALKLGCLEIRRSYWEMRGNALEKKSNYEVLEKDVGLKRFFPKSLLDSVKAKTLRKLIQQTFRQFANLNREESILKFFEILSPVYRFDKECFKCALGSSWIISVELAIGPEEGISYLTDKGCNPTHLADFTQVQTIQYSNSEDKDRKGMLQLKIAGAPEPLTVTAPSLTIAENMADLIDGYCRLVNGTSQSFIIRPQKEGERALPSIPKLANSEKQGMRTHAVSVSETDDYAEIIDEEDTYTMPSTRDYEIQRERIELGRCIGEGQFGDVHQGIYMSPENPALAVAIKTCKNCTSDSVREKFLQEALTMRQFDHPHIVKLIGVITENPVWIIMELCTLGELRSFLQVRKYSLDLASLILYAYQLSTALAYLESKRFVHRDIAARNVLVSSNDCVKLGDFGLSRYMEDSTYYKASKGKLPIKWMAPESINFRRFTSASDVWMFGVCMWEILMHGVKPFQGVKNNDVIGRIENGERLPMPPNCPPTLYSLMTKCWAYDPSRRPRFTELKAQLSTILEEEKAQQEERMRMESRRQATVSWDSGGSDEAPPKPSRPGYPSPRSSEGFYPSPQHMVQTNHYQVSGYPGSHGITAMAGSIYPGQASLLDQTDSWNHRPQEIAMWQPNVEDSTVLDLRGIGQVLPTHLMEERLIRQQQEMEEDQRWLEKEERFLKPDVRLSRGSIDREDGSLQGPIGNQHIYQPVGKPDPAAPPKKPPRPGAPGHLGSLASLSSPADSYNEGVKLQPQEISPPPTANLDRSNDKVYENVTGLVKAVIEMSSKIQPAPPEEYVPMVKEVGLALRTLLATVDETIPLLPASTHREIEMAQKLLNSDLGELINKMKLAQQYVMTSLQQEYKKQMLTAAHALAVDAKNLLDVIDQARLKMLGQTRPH
smiles,measurement,setting,value
"Cl.Cl.Cl.Cl.Nc1cc(N)c(N)cc1N [Y15, 1,2,4,5-benzenetetraamine tetrahydrochloride]",Y397-phosphorylation of FAK in vitro,FAK,directly and specifically decreases
same,cancer cell viability in vitro,cancer cell,inhibits cancer cell viability in vitro
same,toxicity (summary statement),"CD-1 mice; 30 mg/kg by ip administration, duration 28 days",no toxicity
same,pain following injection,"CD-1 mice; IP, 20 daily doses over 28 days, 15, 30, 45 mg/kg equivalent",pain following injection in all dose groups
same,clinical chemistry changes,"CD-1 mice; IP, 28-day study",not associated with any changes in clinical chemistry that were statistically and clinically significant
same,gross and histopathologic findings,"CD-1 mice; IP, 28-day study, all dose groups",gross and histopathologic peritonitis in mice in all dose groups
same,mean body weights,"CD-1 mice; IP, 28-day study, high dose group (45 mg/kg equivalent)",statistically significant lowered mean body weights
same,hematologic changes,CD-1 mice; [1],Some statistically and clinically significant hematologic changes
same,mortality,CD-1 mice; [1],unexpected mortality in the high-dose group
same,clinical signs,"CD-1 mice; IP, 28-day study, medium (30 mg/kg) and high (45 mg/kg) dose groups",clinical signs consistent with general malaise and peritonitis
same,weight loss,"CD-1 mice; IP, 28-day study, medium- and high-dose groups",weight loss in the medium- and high-dose groups
same,tumor growth in vivo,tumor,blocks tumor growth in vivo
